Experiments:
[1] = target: T1, MAP3K1 (Homo sapiens, UniProt Q13233); test: KINOMEscan; assay type: binding; settings: read-out: %Ctrl @ 1000 nM
T1 construct: purchased DiscoveRx KINOMEscan

[2] = target: T2, CSNK2A1 (Homo sapiens, UniProt P68400); test: KINOMEscan; assay type: binding; settings: read-out: %Ctrl @ 1000 nM
T2 construct: purchased DiscoveRx KINOMEscan

[3] = target: T3, NEK6 (Homo sapiens, UniProt Q9HC98); test: KINOMEscan; assay type: binding; settings: read-out: %Ctrl @ 1000 nM
T3 construct: purchased DiscoveRx KINOMEscan

[4] = target: T4, SRPK3 (Homo sapiens, UniProt Q9UPE1); test: KINOMEscan; assay type: binding; settings: read-out: %Ctrl @ 1000 nM
T4 construct: purchased DiscoveRx KINOMEscan

[5] = target: T5, RIPK1 (Homo sapiens, UniProt Q13546); test: KINOMEscan; assay type: binding; settings: read-out: %Ctrl @ 1000 nM
T5 construct: purchased DiscoveRx KINOMEscan

[6] = target: T6, KIT (Homo sapiens, UniProt P10721); test: KINOMEscan; assay type: binding; settings: read-out: %Ctrl @ 1000 nM
T6 construct: purchased DiscoveRx KINOMEscan

[7] = target: T7, RIOK1 (Homo sapiens, UniProt Q9BRS2); test: KINOMEscan; assay type: binding; settings: read-out: %Ctrl @ 1000 nM
T7 construct: purchased DiscoveRx KINOMEscan

[8] = target: T8, FLT4 (Homo sapiens, UniProt P35916); test: KINOMEscan; assay type: binding; settings: read-out: %Ctrl @ 1000 nM
T8 construct: purchased DiscoveRx KINOMEscan

[9] = target: T9, TNK2 (Homo sapiens, UniProt Q07912); test: KINOMEscan; assay type: binding; settings: read-out: %Ctrl @ 1000 nM
T9 construct: purchased DiscoveRx KINOMEscan

[10] = target: T10, TTK (Homo sapiens, UniProt P33981); test: KINOMEscan; assay type: binding; settings: read-out: %Ctrl @ 1000 nM
T10 construct: purchased DiscoveRx KINOMEscan

[11] = target: T11, GSK3B (Homo sapiens, UniProt P49841); test: KINOMEscan; assay type: binding; settings: read-out: %Ctrl @ 1000 nM
T11 construct: purchased DiscoveRx KINOMEscan

[12] = target: T12, MTOR (Homo sapiens, UniProt P42345); test: KINOMEscan; assay type: binding; settings: read-out: %Ctrl @ 1000 nM
T12 construct: purchased DiscoveRx KINOMEscan

[13] = target: T13, ACVR1 (Homo sapiens, UniProt Q04771); test: KINOMEscan; assay type: binding; settings: read-out: %Ctrl @ 1000 nM
T13 construct: purchased DiscoveRx

[14] = target: T14, BRAF (Homo sapiens, UniProt P15056); test: KINOMEscan; assay type: binding; settings: read-out: %Ctrl @ 1000 nM
T14 construct: purchased DiscoveRx KINOMEscan

[15] = target: T15, ABL1(Q252H)-nonphosphorylated (Homo sapiens, UniProt P00519, Q252H); test: KINOMEscan; assay type: binding; settings: read-out: %Ctrl @ 1000 nM
T15 construct: purchased DiscoveRx (KINOMEscan service)

[16] = target: T16, RIPK5 (Homo sapiens, UniProt Q6XUX3); test: KINOMEscan; assay type: binding; settings: read-out: %Ctrl @ 1000 nM
T16 construct: purchased DiscoveRx KINOMEscan

[17] = target: T17, WNK3 (Homo sapiens, UniProt Q9BYP7); test: KINOMEscan; assay type: binding; settings: read-out: %Ctrl @ 1000 nM
T17 construct: purchased DiscoveRx KINOMEscan

[18] = target: T18, CSNK1E (Homo sapiens, UniProt P49674); test: KINOMEscan; assay type: binding; settings: read-out: %Ctrl @ 1000 nM
T18 construct: purchased DiscoveRx KINOMEscan

[19] = target: T19, PAK6 (Homo sapiens, UniProt Q9NQU5); test: KINOMEscan; assay type: binding; settings: read-out: %Ctrl @ 1000 nM
T19 construct: purchased DiscoveRx KINOMEscan

[20] = target: T20, CDC2L5 (Homo sapiens, UniProt Q14004); test: KINOMEscan; assay type: binding; settings: read-out: %Ctrl @ 1000 nM
T20 construct: purchased DiscoveRx KINOMEscan
Description: (§1) 1.1. Table S1 KINOMEscan Data. The KINOMEscan was performed at DiscoveRx. For
(§2) a more detailed description of this assay technology, see: Fabian, M. A.; Biggs, W.
(§3) H., III; Treiber, D. K.; Atteridge, C. E.; Azimioara, M. D.; Benedetti, M. G.; Carter,
(§4) T. A.; Ciceri, P.; Edeen, P. T.; Floyd, M.; Ford, J. M.; Galvin, M.; Gerlach, J. L.;
(§5) Grotzfeld, R. M.; Herrgard, S.; Insko, D. E.; Insko, M. A.; Lai, A. G.; Lélias, J..M.;
(§6) Mehta, S. A.; Milanov, Z. V.; Velasco, A. M.; Wodicka, L. M.; Patel, H. K.;
(§7) Zarrinkar, P. P.; Lockhart, D. J. A small molecule–kinase interaction map for clinical
(§8) Target Gene Symbol %Ctrl @ 1000 nM BAY-598
(§9) ABL1(H396P)-nonphosphorylated 92
(§10) ABL1(Q252H)-nonphosphorylated 66
(§11) ABL1(T315I)-nonphosphorylated 77
(§12) ABL1-nonphosphorylated 79

[21] = target: T21, PRP4 (Homo sapiens, UniProt Q13523); test: KINOMEscan; assay type: binding; settings: read-out: %Ctrl @ 1000 nM
T21 construct: purchased DiscoveRx KINOMEscan
Description: as §1, §2, §3, §4, §5, §6, §7, §8, §9, §10, §11, §12

[22] = target: SMYD2 (Homo sapiens, UniProt Q9NRG4); test: Endogenous p53 methylation in KYSE-150 cells (Western blot); settings: 5 days
[23] = Metabolic stability in rat hepatocytes; assay type: in vitro ADME; settings: read-out: CL (CLblood) (converted)
Description: Liver cells were distributed in Williams’ medium E containing 5% fetal calf serum (FCS) to glass vials at a density of 1.0 × 10^6 vital cells/mL. The test compound was added to a final concentration of 1 μM. During incubation, the hepatocyte suspensions were continuously shaken and aliquots were taken at 2, 8, 16, 30, 45, and 90 min, to which an equal volume of cold MeOH was immediately added. Samples were frozen at −20 °C overnight, then centrifuged (15 min, 3000 rpm), and the supernatant was analyzed with an Agilent 1200 HPLC system with LC-MS/MS detection. The half-life of a test compound was determined from the concentration–time plot. The intrinsic clearances were calculated from the half-life, together with additional parameters (liver blood flow, quantity of liver cells in vivo and in vitro).

[24] = target: T22, PRKCQ (Homo sapiens, UniProt Q04759); test: KINOMEscan; assay type: binding; settings: read-out: %Ctrl @ 1000 nM
T22 construct: purchased DiscoveRx KINOMEscan

[25] = target: T23, RIPK4 (Homo sapiens, UniProt P57078); test: KINOMEscan; assay type: binding; settings: read-out: %Ctrl @ 1000 nM
T23 construct: purchased DiscoveRx KINOMEscan

[26] = target: T24, ACVR2B (Homo sapiens, UniProt Q13705); test: KINOMEscan; assay type: binding; settings: read-out: %Ctrl @ 1000 nM
T24 construct: purchased DiscoveRx

[27] = target: T25, LYN (Homo sapiens, UniProt P07948); test: KINOMEscan; assay type: binding; settings: read-out: %Ctrl @ 1000 nM
T25 construct: purchased DiscoveRx KINOMEscan

[28] = target: T26, EGFR(L747-E749del, A750P) (Homo sapiens, UniProt P00533, A750P/DEL747-749); test: KINOMEscan; assay type: binding; settings: read-out: %Ctrl @ 1000 nM
T26 construct: purchased DiscoveRx KINOMEscan

[29] = target: T27, ABL1(H396P)-nonphosphorylated (Homo sapiens, UniProt P00519, H396P); test: KINOMEscan; assay type: binding; settings: read-out: %Ctrl @ 1000 nM
T27 construct: purchased DiscoveRx (KINOMEscan service)

[30] = target: T28, MAP3K4 (Homo sapiens, UniProt Q9Y6R4); test: KINOMEscan; assay type: binding; settings: read-out: %Ctrl @ 1000 nM
T28 construct: purchased DiscoveRx KINOMEscan

[31] = target: T29, CDK11 (Homo sapiens, UniProt Q9BWU1); test: KINOMEscan; assay type: binding; settings: read-out: %Ctrl @ 1000 nM
T29 construct: purchased DiscoveRx KINOMEscan

[32] = target: T30, CLK3 (Homo sapiens, UniProt P49761); test: KINOMEscan; assay type: binding; settings: read-out: %Ctrl @ 1000 nM
T30 construct: purchased DiscoveRx KINOMEscan

[33] = target: T31, PYK2 (Homo sapiens, UniProt Q14289); test: KINOMEscan; assay type: binding; settings: read-out: %Ctrl @ 1000 nM
T31 construct: purchased DiscoveRx KINOMEscan

T9 sequence (Q07912 whole entry): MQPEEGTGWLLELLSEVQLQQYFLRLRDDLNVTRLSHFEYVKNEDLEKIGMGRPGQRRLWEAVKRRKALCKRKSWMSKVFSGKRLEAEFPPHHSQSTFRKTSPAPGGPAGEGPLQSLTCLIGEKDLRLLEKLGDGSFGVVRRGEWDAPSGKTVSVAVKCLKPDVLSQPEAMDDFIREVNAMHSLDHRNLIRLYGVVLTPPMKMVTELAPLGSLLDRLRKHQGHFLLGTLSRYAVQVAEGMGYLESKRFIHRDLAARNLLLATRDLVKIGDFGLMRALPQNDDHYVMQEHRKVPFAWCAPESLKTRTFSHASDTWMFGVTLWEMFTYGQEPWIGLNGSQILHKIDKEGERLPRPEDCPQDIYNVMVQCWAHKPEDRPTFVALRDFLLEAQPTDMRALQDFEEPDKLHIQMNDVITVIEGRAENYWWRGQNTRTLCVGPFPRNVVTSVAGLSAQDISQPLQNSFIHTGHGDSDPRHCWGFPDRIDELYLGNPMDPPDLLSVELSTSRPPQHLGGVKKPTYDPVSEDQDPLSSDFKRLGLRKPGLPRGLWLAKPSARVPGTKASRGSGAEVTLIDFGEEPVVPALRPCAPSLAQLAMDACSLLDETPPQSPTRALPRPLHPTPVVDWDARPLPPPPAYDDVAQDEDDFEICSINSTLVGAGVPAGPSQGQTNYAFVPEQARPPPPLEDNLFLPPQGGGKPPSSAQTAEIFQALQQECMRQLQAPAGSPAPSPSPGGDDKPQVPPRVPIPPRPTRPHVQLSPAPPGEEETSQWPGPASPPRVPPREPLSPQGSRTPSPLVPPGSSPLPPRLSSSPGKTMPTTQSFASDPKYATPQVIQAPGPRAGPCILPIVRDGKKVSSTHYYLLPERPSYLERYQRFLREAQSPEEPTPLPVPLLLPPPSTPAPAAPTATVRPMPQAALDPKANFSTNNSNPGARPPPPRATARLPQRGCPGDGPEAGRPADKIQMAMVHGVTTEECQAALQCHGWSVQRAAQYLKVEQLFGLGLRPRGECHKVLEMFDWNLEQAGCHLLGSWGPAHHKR
T25 sequence (P07948 whole entry): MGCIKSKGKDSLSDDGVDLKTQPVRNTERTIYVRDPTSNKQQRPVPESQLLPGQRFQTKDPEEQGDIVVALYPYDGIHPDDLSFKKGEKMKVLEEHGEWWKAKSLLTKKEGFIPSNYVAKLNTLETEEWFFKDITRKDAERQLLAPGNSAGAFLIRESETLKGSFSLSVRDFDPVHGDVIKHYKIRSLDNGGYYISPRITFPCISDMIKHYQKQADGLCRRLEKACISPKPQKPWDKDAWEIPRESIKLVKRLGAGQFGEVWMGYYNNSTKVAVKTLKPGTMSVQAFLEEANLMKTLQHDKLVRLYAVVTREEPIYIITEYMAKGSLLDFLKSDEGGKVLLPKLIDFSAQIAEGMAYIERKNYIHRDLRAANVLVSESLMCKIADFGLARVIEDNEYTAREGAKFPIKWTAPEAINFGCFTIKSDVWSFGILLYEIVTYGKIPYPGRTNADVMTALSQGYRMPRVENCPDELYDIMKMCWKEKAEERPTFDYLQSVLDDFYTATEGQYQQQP
T3 sequence (Q9HC98 whole entry): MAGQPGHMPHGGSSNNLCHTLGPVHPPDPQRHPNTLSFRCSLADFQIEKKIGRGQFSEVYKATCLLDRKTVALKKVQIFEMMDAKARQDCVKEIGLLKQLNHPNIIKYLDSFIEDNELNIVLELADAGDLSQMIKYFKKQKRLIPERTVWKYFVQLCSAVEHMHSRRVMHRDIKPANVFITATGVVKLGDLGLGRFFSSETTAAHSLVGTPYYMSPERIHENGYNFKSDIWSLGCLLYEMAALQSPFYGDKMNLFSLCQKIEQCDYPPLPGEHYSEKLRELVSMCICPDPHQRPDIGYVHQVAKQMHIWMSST
T2 sequence (P68400 whole entry): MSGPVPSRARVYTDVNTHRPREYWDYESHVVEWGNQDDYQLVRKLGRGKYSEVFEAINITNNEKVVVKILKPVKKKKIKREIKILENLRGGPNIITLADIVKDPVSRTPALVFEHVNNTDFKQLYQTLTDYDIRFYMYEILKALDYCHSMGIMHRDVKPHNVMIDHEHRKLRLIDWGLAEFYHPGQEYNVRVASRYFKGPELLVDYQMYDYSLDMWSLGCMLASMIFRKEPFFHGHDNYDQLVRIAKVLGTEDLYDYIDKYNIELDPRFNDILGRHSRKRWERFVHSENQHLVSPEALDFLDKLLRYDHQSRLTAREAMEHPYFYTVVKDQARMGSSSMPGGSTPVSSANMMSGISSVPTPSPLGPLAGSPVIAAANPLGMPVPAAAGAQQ
T24 sequence (Q13705 19-512): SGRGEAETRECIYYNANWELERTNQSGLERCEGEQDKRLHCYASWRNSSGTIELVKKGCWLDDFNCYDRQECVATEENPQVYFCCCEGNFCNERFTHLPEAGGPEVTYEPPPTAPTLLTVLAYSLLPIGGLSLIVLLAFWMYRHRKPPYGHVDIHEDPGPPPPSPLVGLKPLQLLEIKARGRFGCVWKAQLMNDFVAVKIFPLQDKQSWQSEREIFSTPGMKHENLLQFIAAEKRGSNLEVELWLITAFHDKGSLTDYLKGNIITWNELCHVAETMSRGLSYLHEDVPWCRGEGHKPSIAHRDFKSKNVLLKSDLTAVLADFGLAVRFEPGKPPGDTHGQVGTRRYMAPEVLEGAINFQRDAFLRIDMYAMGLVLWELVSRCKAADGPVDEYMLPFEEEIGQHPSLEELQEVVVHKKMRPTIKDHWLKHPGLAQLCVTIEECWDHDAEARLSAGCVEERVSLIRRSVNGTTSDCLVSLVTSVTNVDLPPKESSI
T17 sequence (Q9BYP7 whole entry): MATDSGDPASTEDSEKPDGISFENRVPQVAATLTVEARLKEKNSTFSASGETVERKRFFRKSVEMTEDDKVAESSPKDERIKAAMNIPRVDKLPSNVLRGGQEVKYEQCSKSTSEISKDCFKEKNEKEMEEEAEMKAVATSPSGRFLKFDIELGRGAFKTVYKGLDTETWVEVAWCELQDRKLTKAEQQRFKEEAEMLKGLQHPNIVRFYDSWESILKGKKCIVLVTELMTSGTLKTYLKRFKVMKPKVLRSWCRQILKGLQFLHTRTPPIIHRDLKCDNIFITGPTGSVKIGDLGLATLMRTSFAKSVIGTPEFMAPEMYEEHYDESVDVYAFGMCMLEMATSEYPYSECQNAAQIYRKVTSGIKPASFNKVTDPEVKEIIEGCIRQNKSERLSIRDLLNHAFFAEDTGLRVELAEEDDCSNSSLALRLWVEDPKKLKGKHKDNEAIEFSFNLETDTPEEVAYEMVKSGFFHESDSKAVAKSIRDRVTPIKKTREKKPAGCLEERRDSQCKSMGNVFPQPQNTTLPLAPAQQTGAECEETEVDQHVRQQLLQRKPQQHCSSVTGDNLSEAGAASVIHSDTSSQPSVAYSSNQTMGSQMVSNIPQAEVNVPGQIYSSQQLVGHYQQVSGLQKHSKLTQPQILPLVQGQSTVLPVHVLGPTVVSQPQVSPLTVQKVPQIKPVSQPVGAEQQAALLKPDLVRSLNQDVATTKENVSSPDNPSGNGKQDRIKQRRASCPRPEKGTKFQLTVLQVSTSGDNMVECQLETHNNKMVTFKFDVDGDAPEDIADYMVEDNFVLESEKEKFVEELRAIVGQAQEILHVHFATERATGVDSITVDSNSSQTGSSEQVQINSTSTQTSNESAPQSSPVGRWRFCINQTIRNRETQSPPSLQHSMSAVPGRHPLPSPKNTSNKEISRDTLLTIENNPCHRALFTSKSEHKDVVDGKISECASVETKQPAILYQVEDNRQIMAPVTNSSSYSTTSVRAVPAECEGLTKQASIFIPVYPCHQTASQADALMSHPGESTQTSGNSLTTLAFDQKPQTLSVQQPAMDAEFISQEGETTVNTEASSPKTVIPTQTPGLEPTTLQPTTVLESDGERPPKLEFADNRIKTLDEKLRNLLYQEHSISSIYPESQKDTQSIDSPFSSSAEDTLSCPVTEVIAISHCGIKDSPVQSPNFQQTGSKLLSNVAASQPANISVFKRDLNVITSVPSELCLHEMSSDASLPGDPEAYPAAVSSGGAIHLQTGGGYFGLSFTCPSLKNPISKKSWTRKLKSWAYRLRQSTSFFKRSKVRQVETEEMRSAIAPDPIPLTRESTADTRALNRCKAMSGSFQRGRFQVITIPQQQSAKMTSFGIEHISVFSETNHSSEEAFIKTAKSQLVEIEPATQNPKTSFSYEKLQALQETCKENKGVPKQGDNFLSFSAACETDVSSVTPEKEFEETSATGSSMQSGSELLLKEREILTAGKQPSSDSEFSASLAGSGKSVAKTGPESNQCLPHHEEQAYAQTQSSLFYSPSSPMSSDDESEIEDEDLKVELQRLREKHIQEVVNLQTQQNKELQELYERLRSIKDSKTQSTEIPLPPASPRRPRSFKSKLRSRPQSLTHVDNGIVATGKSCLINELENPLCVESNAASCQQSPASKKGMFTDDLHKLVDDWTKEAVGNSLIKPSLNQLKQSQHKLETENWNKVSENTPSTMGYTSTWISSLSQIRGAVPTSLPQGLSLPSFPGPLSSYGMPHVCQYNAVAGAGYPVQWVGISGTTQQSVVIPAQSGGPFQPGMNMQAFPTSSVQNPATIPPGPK
T30 sequence (P49761 whole entry): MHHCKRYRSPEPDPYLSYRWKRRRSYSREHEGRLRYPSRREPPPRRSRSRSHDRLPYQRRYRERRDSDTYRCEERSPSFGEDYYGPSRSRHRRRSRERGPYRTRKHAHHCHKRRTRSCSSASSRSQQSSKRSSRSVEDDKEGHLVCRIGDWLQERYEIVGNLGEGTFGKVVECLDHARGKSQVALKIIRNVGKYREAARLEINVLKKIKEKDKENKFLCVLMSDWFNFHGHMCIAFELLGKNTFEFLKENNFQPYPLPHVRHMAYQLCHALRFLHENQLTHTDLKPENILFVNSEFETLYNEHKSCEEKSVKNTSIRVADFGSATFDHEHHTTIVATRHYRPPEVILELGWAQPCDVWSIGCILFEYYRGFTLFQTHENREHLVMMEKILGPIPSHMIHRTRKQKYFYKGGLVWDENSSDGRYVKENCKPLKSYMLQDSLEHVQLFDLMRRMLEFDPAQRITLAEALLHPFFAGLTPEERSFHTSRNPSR

CCN(C(=O)CO)[C@H]1CN(/C(=N\C#N)Nc2cccc(OC(F)F)c2)N=C1c1ccc(Cl)c(Cl)c1 [(S)-4]
remaining binding at 1 µM [1]: 100% | remaining binding at 1 µM [2]: 78% | remaining binding at 1 µM [3]: 91% | remaining binding at 1 µM [4]: 79% | remaining binding at 1 µM [5]: 76% | remaining binding at 1 µM [6]: 100% | remaining binding at 1 µM [7]: 77% | remaining binding at 1 µM [8]: 87% | remaining binding at 1 µM [9]: 96% | remaining binding at 1 µM [10]: 82% | remaining binding at 1 µM [11]: 88% | remaining binding at 1 µM [12]: 100% | remaining binding at 1 µM [13]: 96% | remaining binding at 1 µM [14]: 100% | remaining binding at 1 µM [15]: 66% | remaining binding at 1 µM [16]: 90% | remaining binding at 1 µM [17]: 93% | remaining binding at 1 µM [18]: 86% | remaining binding at 1 µM [19]: 100% | remaining binding at 1 µM [20]: 81% | remaining binding at 1 µM [21]: 90% | Endogenous p53 methylation [22]: significant reduction of methylation | CLhep predicted at […], 1 µM [23]: 2.5 L/h/kg | remaining binding at 1 µM [24]: 100% | remaining binding at 1 µM [25]: 100% | remaining binding at 1 µM [26]: 100% | remaining binding at 1 µM [27]: 80% | remaining binding at 1 µM [28]: 87% | remaining binding at 1 µM [29]: 92% | remaining binding at 1 µM [30]: 75% | remaining binding at 1 µM [31]: 85% | remaining binding at 1 µM [32]: 94% | remaining binding at 1 µM [33]: 100%

Source: article PMC4917279 (Journal of Medicinal Chemistry, 2016)
